Measurements as given in PubChem BioAssay AID330 (DTP/NCI, 2004).
Values joined by “and” are separate entries in the source; they are usually repeats but may differ in a detail not shown here. Equal values may be shown once. Inconclusive results and toxic doses are left out.

Test system: P388 leukemia ip, CD2F1 mice, survival T/C
Test: NCI In Vivo Anticancer Drug Screen. Data for tumor model P388 Leukemia (intraperitoneal) in CD2F1 (CDF1) mice
Conditions: endpoint: median survival time, higher = longer survival
Method in brief: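 Mice carrying the transplanted tumor received test compound or vehicle. Survival was recorded in each group, and the value is the treated-group measurement divided by that of the vehicle-treated control group.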

[1] = dose: 60.0 mg/kg/injection, schedule: Q01DX005 (ip), vehicle: saline with Tween-80
[2] = dose: 120.0 mg/kg/injection, schedule: Q01DX005 (ip), vehicle: saline with Tween-80
[3] = dose: 240.0 mg/kg/injection, schedule: Q01DX005 (ip), vehicle: saline with Tween-80
[4] = dose: 50.0 mg/kg/injection, schedule: Q01DX009 (ip), vehicle: saline
[5] = dose: 100.0 mg/kg/injection, schedule: Q01DX009 (ip), vehicle: saline
[6] = dose: 200.0 mg/kg/injection, schedule: Q01DX009 (ip), vehicle: saline

CC1=CCC2(C)C(=O)CC3(C)C(CCC4C5(C)CCC(=O)C(C)(C)C5CCC43C)C2C1C (stereo not given)
T/C (dose: 1.75 mg/kg/injection, schedule: Q01DX009 (ip), vehicle: saline): 103 % of control and 121 % of control | T/C (dose: 3.5 mg/kg/injection, schedule: Q01DX009 (ip), vehicle: saline): 99 % of control and 114 % of control | T/C (dose: 7.0 mg/kg/injection, schedule: Q01DX009 (ip), vehicle: saline): 110 % of control and 118 % of control

N#CC(C#N)=C(O)/C(=C/c1ccc(Cl)cc1Cl)NC(=O)c1ccccc1
T/C [1]: 107 % of control | T/C [2]: 98 % of control | T/C [3]: 100 % of control

CSCCC(O)C(NC(=O)CCl)C(=O)O (stereo not given)
T/C [4]: 89 % of control and 96 % of control | T/C [5]: 98 % of control and 102 % of control | T/C [6]: 93 % of control and 95 % of control

CC(NC(=O)c1ccc(C(C[N+](=O)[O-])SCCC(=O)O)cc1)C(=O)O (stereo not given)
T/C (dose: 60.0 mg/kg/injection, schedule: Q01DX005 (ip), vehicle: saline + Tween-80 + alcohol): 98 % of control | T/C (dose: 120.0 mg/kg/injection, schedule: Q01DX005 (ip), vehicle: saline + Tween-80 + alcohol): 99 % of control | T/C (dose: 240.0 mg/kg/injection, schedule: Q01DX005 (ip), vehicle: saline + Tween-80 + alcohol): 107 % of control

CCCCN(CCC#N)C(N)=O
T/C (dose: 50.0 mg/kg/injection, schedule: Q01DX005 (ip), vehicle: Klucel (hydroxypropylcellulose) (HPC)): 100 % of control | T/C (dose: 100.0 mg/kg/injection, schedule: Q01DX005 (ip), vehicle: Klucel (hydroxypropylcellulose) (HPC)): 100 % of control | T/C (dose: 200.0 mg/kg/injection, schedule: Q01DX005 (ip), vehicle: Klucel (hydroxypropylcellulose) (HPC)): 100 % of control

O=C(CC(O)(c1ccccc1)c1ccccc1)SCc1ccccc1
T/C (dose: 100.0 mg/kg/injection, schedule: Q04DX003 (ip), vehicle: Klucel (hydroxypropylcellulose) (HPC)): 102 % of control | T/C (dose: 200.0 mg/kg/injection, schedule: Q04DX003 (ip), vehicle: Klucel (hydroxypropylcellulose) (HPC)): 98 % of control | T/C (dose: 400.0 mg/kg/injection, schedule: Q04DX003 (ip), vehicle: Klucel (hydroxypropylcellulose) (HPC)): 110 % of control

CCSc1ncc(Br)c(Sc2nc(N)nc3nc[nH]c23)n1
T/C (dose: 4.0 mg/kg/injection, schedule: Q04DX003 (ip), vehicle: saline with Tween-80): 113 % of control | T/C (dose: 6.25 mg/kg/injection, schedule: Q01DX009 (ip), vehicle: saline with Tween-80): 122 % of control | T/C (dose: 16.5 mg/kg/injection, schedule: Q04DX003 (ip), vehicle: saline with Tween-80): 150 % of control | T/C (dose: 25.0 mg/kg/injection, schedule: Q01DX009 (ip), vehicle: saline with Tween-80): 90 % of control | T/C (dose: 25.0 mg/kg/injection, schedule: Q04DX003 (ip), vehicle: saline with Tween-80): 150 % of control and 159 % of control | T/C (dose: 100.0 mg/kg/injection, schedule: Q04DX003 (ip), vehicle: saline with Tween-80): 122 % of control

Cc1ccc(S(=O)(=O)NC(CCC(N)=O)C(=O)O)cc1 (stereo not given)
T/C (dose: 50.0 mg/kg/injection, schedule: Q01DX005 (ip), vehicle: saline with Tween-80): 100 % of control | T/C (dose: 100.0 mg/kg/injection, schedule: Q01DX005 (ip), vehicle: saline with Tween-80): 103 % of control | T/C (dose: 200.0 mg/kg/injection, schedule: Q01DX005 (ip), vehicle: saline with Tween-80): 91 % of control

BrCc1ccc2ccc3ccc(CBr)nc3c2n1
T/C (dose: 7.5 mg/kg/injection, schedule: Q01DX005 (ip), vehicle: saline with Tween-80): 103 % of control | T/C (dose: 15.0 mg/kg/injection, schedule: Q01DX005 (ip), vehicle: saline with Tween-80): 115 % of control | T/C (dose: 30.0 mg/kg/injection, schedule: Q01DX005 (ip), vehicle: saline with Tween-80): 106 % of control

CC(C)(CO)C(O)C(=O)NCCCO (stereo not given)
T/C [4]: 103 % of control | T/C [5]: 98 % of control | T/C [6]: 100 % of control

O=[N+]([O-])c1ccc(O)c(O)c1
T/C (dose: 12.5 mg/kg/injection, schedule: Q01DX009 (ip), vehicle: saline): 100 % of control | T/C (dose: 25.0 mg/kg/injection, schedule: Q01DX009 (ip), vehicle: saline): 108 % of control | T/C [4]: 98 % of control

NC(=O)C(F)(F)C(F)(F)C(N)=O
T/C [1]: 107 % of control | T/C [2]: 112 % of control | T/C [3]: 104 % of control

c1ccc2c(NCCCCCNc3c4ccccc4nc4ccccc34)c3ccccc3nc2c1
T/C (dose: 0.63 mg/kg/injection, schedule: Q01DX009 (ip), vehicle: other): 103 % of control | T/C (dose: 1.25 mg/kg/injection, schedule: Q01DX009 (ip), vehicle: other): 108 % of control | T/C (dose: 2.5 mg/kg/injection, schedule: Q01DX009 (ip), vehicle: other): 100 % of control | T/C (dose: 3.75 mg/kg/injection, schedule: Q01DX009 (ip), vehicle: other): 112 % of control | T/C (dose: 5.0 mg/kg/injection, schedule: Q01DX009 (ip), vehicle: other): 117 % of control | T/C (dose: 10.0 mg/kg/injection, schedule: Q01DX009 (ip), vehicle: other): 122 % of control
